Laboratory results published in paper PMC4632086, “Effects and possible mechanisms of action of acacetin on the behavior and eye morphology of Drosophila models of Alzheimer’s disease” (Scientific Reports, 2015).

Key:
Type in all cases: in vivo, Drosophila melanogaster
GMR < APP/BACE-1 flies [1] = experiment: Cason's trichrome staining of eye sections (photoreceptor degeneration); details: 100, 300, and 500 μM; 5- and 15-day-old males
Experimental: Cason’s trichrome staining was performed, as described by Wang et al.[33] and Perumalsamy et al.[77]. Briefly, the heads of 5- and 15-day-old male GMR < APP/BACE-1 flies, cultured in vials as stated previously, were fixed in a 4% paraformaldehyde buffer solution (pH 7.4) overnight at 4 °C, and paraffin-embedded preparations of the fly heads were then sectioned at 10 μm thickness using a HM 340E rotary microtome (Thermo Scientific Microm, Walldorf, Germany). The sections were dried at 40 °C overnight, subsequently deparaffinized with CitriSolv (Fisher Scientific, Fair Lawn, NJ, USA), and rehydrated using a series of ethanol solutions in phosphate-buffered saline (PBS). The rehydrated paraffin sections were soaked in Carson’s trichrome solution for 15 min, and the slides were gently swashed in tap water and subsequently rinsed three times in distilled water (DW). The excess water was removed with tissue paper, and the samples were mounted using Vectashield H-1000 mounting medium (Vector Laboratories, Burlingame, CA, USA).

human APP = experiment: Western blot, APP protein in heads of elav < APP/BACE-1 flies; details: 20-day-old males
Experimental: The elav < APP/BACE-1 flies were cultured from the egg stage, as described previously. The lysates were obtained from the heads of 50 male flies (20 days old) by placing the heads in 100 μL RIPA buffer (pH 8.0) containing a 1% protease inhibitor cocktail. The controls received 0.1% DMSO. The lysates were centrifuged at 14,000 rpm for 30 min at 4 °C. The protein content of the supernatant was determined using a Bradford Protein Assay kit (Sigma-Aldrich) and BSA was used as the standard. The total proteins (30 μg/sample for APP and BACE-1 detection; 70 μg/sample for Aβ detection) were mixed with an equal volume of 5× sample buffer[81] containing 40 mM of DL-dithiothreitol, boiled for 10 min, and then loaded onto 8, 10, and 12% sodium dodecyl sulfate-polyacrylamide gels using a Mini-Protean 3 electrophoresis cell (Bio-Rad, Hercules, CA, USA) for APP, APP-CTF (APP-αCTF and APP-βCTF) and AICD, BACE-1, and Aβ detection, respectively. After electrophoresis at 110 V in 2 h, the proteins from the gels were transferred onto a polyvinyl difluoride membrane (Pall Corporation, Pensacola, FL, USA) using an electroblotting apparatus. The membrane was then blocked with 5% skim milk (BD Difco, Flanklin Lakes, NJ, USA) in PBS containing 0.1% (v/v) Tween-20 (0.1% PBS-T) at room temperature for 1 h, and further incubated overnight at 4 °C with a 1:4,000 dilution of an anti-APP C-terminal antibody to detect the cleaved APP product, a 1:1,000 dilution of anti-BACE-1, and a 1:1,000 dilution of anti-amyloid (4G8). After washing with 0.1% PBS-T three times at 10 min intervals, the membranes were further incubated for 2 h with a goat anti-rabbit IgG H&L (HRP) secondary antibody at a1:4,000 dilution for APP and BACE-1 and a goat anti-mouse lgG-HRP at a 1:5,000 dilution for β-amyloid. […] The differences in protein expression were quantified using a Molecular Imager Gel Doc XR system (Bio-Rad, Hercules, CA, USA) and normalized to actin expression on the same membrane. The results are expressed as the means ± SEs of duplicate samples from three independent experiments.

GMR < APP/BACE-1 flies [2] = experiment: Light and scanning electron microscopy of adult compound eyes
Experimental: GMR < APP/BACE-1 flies were cultured from the egg stage in polystyrene vials containing standard media supplemented with acacetin (100, 300, and 500 μM) in 0.1% DMSO, based on the preliminary test results. The controls received 0.1% DMSO only. […] The morphology of the compound eyes was observed using an EZ4 HD stereo microscope (×35) equipped with an Integrated 3.0 Mega-Pixel CMOS camera (Leica, Hicksville, NY, USA). The flies with aberrant eye phenotypes were collected, and the number of the flies with dark deposits in the eye was counted.
For SEM, the anesthetized male flies (30 days old) were attached to a copper mount using silver paint as a conducting adhesive, as described previously. They were then put directly into the viewing chamber of an SEM without prior coating, as described by Hartman and Hayes[76]. The external surface morphology of the compound eye was visualized using a Supra 55VP field-emission scanning electron microscope (Carl Zeiss, Jena, Germany) operated at 15 kV.

human APP mRNA = experiment: Real-time qRT-PCR, human APP mRNA in elav < APP/BACE-1 flies; details: 100, 300, and 500 μM; 20-day-old males; compared to vehicle
Experimental: Real-time qRT-PCR with SYBR Green dye was performed to determine whether acacetin affected the expression levels of the human APP and BACE-1 mRNAs in the transgenic flies. The elav < APP/BACE-1 and elav < GFP flies were cultured from the egg stage in vials, as stated previously. The controls received 0.1% DMSO only. The total RNA was extracted from 30 heads (30 mg) of male elav < APP/BACE-1 and elav < GFP flies (20 days old) using the RNeasy Mini Kit (Qiagen, Hilden, Germany) according to the manufacturer’s instructions. The residual genomic DNA was removed using RQ1 RNase-Free DNase (Promega, Fitchburg, WI, USA), and 1 μg of the total RNA from each sample was used for complementary DNA (cDNA) synthesis with an oligo (dT) 12–18 primer (Invitrogen, Carlsbad, CA, USA) according to the protocol of the SuperScript III Reverse Transcriptase Kit. Real-time qRT-PCR was performed in 96-well plates using the StepOne Plus Real-Time PCR System (Applied Biosystems, Darmstadt, Germany). […] The mRNA expression levels of the target genes were normalized to the mRNA expression level of the housekeeping gene rp 49 that encodes the Drosophila ribosomal protein 49, and analyzed by the 2^–ΔΔCT method using the StepOne Software v2.3 and DataAssist Software (Applied Biosystems). The results are expressed as the means ± SEs of duplicate samples from three independent experiments.

## COc1ccc(-c2cc(=O)c3c(O)cc(O)cc3o2)cc1 [acacetin]
GMR < APP/BACE-1 flies [1]
  photoreceptor degeneration: partially suppressed the photoreceptor degeneration
Human APP; 100 μM, not significantly different from control
  APP levels, % of the control levels: 86%
Human APP; 300 μM
  APP levels, % of the control levels: 70%
Human APP; 500 μM
  APP levels, % of the control levels: 69%
GMR < APP/BACE-1 flies [2]; 100, 300, and 500 μM in media, 1-day-old females, vehicle DMSO […]
  ratio of female flies with dark deposits in the eyes: 6.3–8.0%
GMR < APP/BACE-1 flies [2]; 100, 300, and 500 μM in media, 1-day-old males, vehicle DMSO 18.7%
  ratio of male flies with dark deposits in the eyes: 5.0–7.0%
GMR < APP/BACE-1 flies [2]; 100, 300, and 500 μM, light microscopy, vs vehicle-fed flies
  ommatidial fusion in the central side of the eyes: significantly suppressed ommatidial fusion
GMR < APP/BACE-1 flies [2]; 300 and 500 μM, light microscopy
  ommatidial fusion at the edges of the eyes: ameliorated ommatidial fusion
Human APP mRNA
  reduction in the APP mRNA levels: 69–82%
